According to PMC9266797 (2022):

Assays:
[1] = test system: poly dAdT–poly dAdT (DNA, polymer) AT; experiment: DAPI displacement by CD (ICD at 375 nm); conditions: Na+ (sodium cacodylate, I = 0.05 M), pH 7.0, DAPI displaced; for IDA50%: ratio [DAPI]/[compound], range printed for 6 and 7 together
[2] = test system: poly A–poly U (RNA, polymer) A/U; experiment: fluorimetric titration, Scatchard fit; conditions: Na+ (sodium cacodylate, I = 0.05 M), n fixed at 0.2 per nucleobase, per base
[3] = test system: poly dAdT–poly dAdT (DNA, polymer) AT; experiment: UV melting at 260 nm; conditions: Na+ (sodium cacodylate, I = 0.05 M); pH 7.0; DNA 25 µM; no Cu2+; per base
[4] = test system: poly A–poly U (RNA, polymer) A/U; experiment: UV melting at 260 nm; conditions: Na+ (sodium cacodylate, I = 0.05 M); pH 7.0; RNA 25 µM, r = 0.25; no Cu2+; per base
[5] = test system: poly dAdT–poly dAdT (DNA, polymer) AT; experiment: CD (induced band at 375 nm); conditions: Na+ (sodium cacodylate, I = 0.05 M); pH 7.0; DNA 20 µM, r[DAPI]/[DNA] = 0.6

**Q.** For COC(=O)[C@H](Cc1c[nH]c2ccccc12)NC(=O)C(Cc1cn(COC(=O)C(C)(C)C)nn1)NC(=O)CCCc1ccc2ccc3cccc4ccc1c2c34 (stereo partly shown), which IDA50% [1] is on record?
**A.** 0.02–0.01

**Q.** What about the “log Ks” value ([2]; pH 7.0, 0.04% DMSO, 1 µM compound) of the same compound?
**A.** 6.8

**Q.** What about the “∆Tm” value [3] of the same compound?
**A.** 0 ± 0.5 °C

**Q.** What about the “∆Tm” value [4] of the same compound?
**A.** 0 ± 0.5 °C

**Q.** Which results are given for COC(=O)[C@H](Cc1c[nH]c2ccccc12)NC(=O)C(Cc1cn(COC(=O)C(C)(C)C)nn1)NC(=O)[C@@H](N)Cc1c[nH]c2ccccc12 (stereo partly shown)?
**A.** binding ([1]; very weakly): weak; ∆Tm [4]: 0 ± 0.5 °C

**Q.** With COC(=O)[C@H](Cc1c[nH]c2ccccc12)NC(=O)C(Cc1cn(COC(=O)C(C)(C)C)nn1)NC(=O)c1ccc2ccc3cccc4ccc1c2c34 (stereo partly shown) as the compound, how does the IDA50% [1] read?
**A.** 0.02–0.01

**Q.** And the “log Ks” value ([2]; pH 7.0)?
**A.** 6.6

**Q.** And the “∆Tm” value [4]?
**A.** 0 ± 0.5 °C

**Q.** With N=C(N)c1ccc(-c2cc3ccc(C(=N)N)cc3[nH]2)cc1 as the compound, how does the binding [5] read?
**A.** yes
